Reference: patent publication US20170050957A1, “4-AMINO-6-(HETEROCYCLIC)PICOLINATES AND 6-AMINO-2-(HETEROCYCLIC)PYRIMIDINE-4-CARBOXYLATES AND THEIR USE AS HERBICIDES” (Dow AgroSciences LLC, priority 2013, published 2017)

Test system: Wheat and Barley and test plant species
Experiment: Post-emergent Test III, herbicidal activity in wheat and barley (Table 17; visual injury, GR20/GR50/GR80/GR90)
Format: in vivo
Settings: 21 d; for Visual Growth Reduction (%) 21 Days After Application, CIRAR / Visual Growth Reduction (%) 21 Days After Application, GALAP / Visual Growth Reduction (%) 21 Days After Application, HORVS / Visual Growth Reduction (%) 21 Days After Application, KCHSC / Visual Growth Reduction (%) 21 Days After Application, LAMPU / Visual Growth Reduction (%) 21 Days After Application, MATCH / Visual Growth Reduction (%) 21 Days After Application, PAPRH / Visual Growth Reduction (%) 21 Days After Application, SASKR / Visual Growth Reduction (%) 21 Days After Application, SINAR / Visual Growth Reduction (%) 21 Days After Application, TRZAS / Visual Growth Reduction (%) 21 Days After Application, VERPE / Visual Growth Reduction (%) 21 Days After Application, VIOTR: post-emergent
Protocol: Post-emergent Test III. Seeds of the desired test plant species were planted in Sun Gro MetroMix® 306 planting mixture, which typically has a pH of 6.0 to 6.8 and an organic matter content of about 30 percent, in plastic pots with a surface area of 103.2 square centimeters (cm^2). When required to ensure good germination and healthy plants, a fungicide treatment and/or other chemical or physical treatment was applied. The plants were grown for 7-36 days (d) in a greenhouse with an approximate 14 hour (h) photoperiod which was maintained at about 18° C. during the day and 17° C. during the night. Nutrients and water were added on a regular basis and supplemental lighting was provided with overhead metal halide 1000-Watt lamps as necessary. The plants were employed for testing when they reached the second or third true leaf stage.
A weighed amount, determined by the highest rate to be tested, of each test compound was placed in a 25 mL glass vial and was dissolved in 4 mL of a 97:3 v/v mixture of acetone and DMSO to obtain concentrated stock solutions. […] The concentrated stock solutions obtained were diluted with 20 mL of an aqueous mixture containing acetone, water, isopropyl alcohol, DMSO, Agri-Dex crop oil concentrate, and X-77 surfactant in a 48:39:10:1.5:1.5:0.02 v/v ratio to obtain spray solutions containing the highest application rates. Additional application rates were obtained by serial dilution of 12 mL of the high rate solution into a solution containing 2 mL of 97:3 v/v mixture of acetone and DMSO and 10 mL of an aqueous mixture containing acetone, water, isopropyl alcohol, DMSO, Agri-Dex crop oil concentrate, and X-77 surfactant in a 48:39:10:1.5:1.5:0.02 v/v ratio to obtain 1/2×, 1/4×, 1/8× and 1/16× rates of the high rate. Compound requirements are based upon a 12 mL application volume at a rate of 187 liters per hectare (L/ha). Formulated compounds were applied to the plant material with an overhead Mandel track sprayer equipped with 8002E nozzles calibrated to deliver 187 L/ha over an application area of 0.503 square meters at a spray height of 18 inches (43 cm) above the average plant canopy height. Control plants were sprayed in the same manner with the solvent blank.
The treated plants and control plants were placed in a greenhouse as described above and watered by subirrigation to prevent wash-off of the test compounds. After 21 d, the condition of the test plants as compared with that of the untreated plants was determined visually and scored on a scale of 0 to 100 percent where 0 corresponds to no injury and 100 corresponds to complete kill. By applying the well-accepted probit analysis as described by J. Berkson in Journal of the American Statistical […], 48, 565 (1953) and by D. Finney in “Probit Analysis” Cambridge University Press (1952), the above data can be used to calculate GR20, GR50, GR80 and GR90 values, which are defined as growth reduction factors that correspond to the effective dose of herbicide required to kill or control 20 percent, 50 percent, 80 percent or 90 percent, respectively, of a target plant.

For `COC(=O)c1nc(-c2ccc3cc[nH]c3c2F)c(F)c(N)c1Cl` [Compound 1.15, Methyl 4-amino-3-chloro-5-fluoro-6-(7-fluoro-1H-indol-6-yl)picolinate], the “Visual Growth Reduction (%) 21 Days After Application, CIRAR” value (CIRAR, 17.5 g ai/ha) was “F (30-44)”, the “Visual Growth Reduction (%) 21 Days After Application, CIRAR” value (CIRAR, 35 g ai/ha) was “D (60-74)” and the “Visual Growth Reduction (%) 21 Days After Application, CIRAR” value (CIRAR, 70 g ai/ha) was “C (75-84)”. The “GR50, CIRAR” value (CIRAR, dose for 50 percent growth reduction, probit analysis) was 30 g ai/ha, the “GR80, CIRAR” value (CIRAR, dose for 80 percent growth reduction, probit analysis) was 70 g ai/ha and the “GR90, CIRAR” value (CIRAR, dose for 90 percent growth reduction, probit analysis) was 109 g ai/ha. The “Visual Growth Reduction (%) 21 Days After Application, GALAP” value (GALAP, 17.5 g ai/ha) was “D (60-74)”, the “Visual Growth Reduction (%) 21 Days After Application, GALAP” value (GALAP, 35 g ai/ha) was “B (85-94)” and the “Visual Growth Reduction (%) 21 Days After Application, GALAP” value (GALAP, 70 g ai/ha) was “A (95-100)”. For the same compound, the “GR50, GALAP” value (GALAP, dose for 50 percent growth reduction, probit analysis) was 9 g ai/ha, the “GR80, GALAP” value (GALAP, dose for 80 percent growth reduction, probit analysis) was 23 g ai/ha and the “GR90, GALAP” value (GALAP, dose for 90 percent growth reduction, probit analysis) was 37 g ai/ha. The “Visual Growth Reduction (%) 21 Days After Application, HORVS” value (HORVS, 17.5 g ai/ha) was “F (30-44)”, the “Visual Growth Reduction (%) 21 Days After Application, HORVS” value (HORVS, 35 g ai/ha) was “E (45-59)” and the “Visual Growth Reduction (%) 21 Days After Application, HORVS” value (HORVS, 70 g ai/ha) was “E (45-59)”. For the same compound, the “GR20, HORVS” value (HORVS, dose for 20 percent growth reduction, probit analysis) was 8 g ai/ha, the “Visual Growth Reduction (%) 21 Days After Application, KCHSC” value (KCHSC, 17.5 g ai/ha) was “D (60-74)” and the “Visual Growth Reduction (%) 21 Days After Application, KCHSC” value (KCHSC, 35 g ai/ha) was “B (85-94)”. The “Visual Growth Reduction (%) 21 Days After Application, KCHSC” value (KCHSC, 70 g ai/ha) was “B (85-94)”, the “GR50, KCHSC” value (KCHSC, dose for 50 percent growth reduction, probit analysis) was 6 g ai/ha and the “GR80, KCHSC” value (KCHSC, dose for 80 percent growth reduction, probit analysis) was 28 g ai/ha. For the same compound, the “GR90, KCHSC” value (KCHSC, dose for 90 percent growth reduction, probit analysis) was 67 g ai/ha, the “Visual Growth Reduction (%) 21 Days After Application, LAMPU” value (LAMPU, 17.5 g ai/ha) was “A (95-100)” and the “Visual Growth Reduction (%) 21 Days After Application, LAMPU” value (LAMPU, 35 g ai/ha) was “A (95-100)”. The “Visual Growth Reduction (%) 21 Days After Application, LAMPU” value (LAMPU, 70 g ai/ha) was “A (95-100)”, the “GR50, LAMPU” value (LAMPU, dose for 50 percent growth reduction, probit analysis) was 0.10 g ai/ha and the “GR80, LAMPU” value (LAMPU, dose for 80 percent growth reduction, probit analysis) was 1 g ai/ha. The “GR90, LAMPU” value (LAMPU, dose for 90 percent growth reduction, probit analysis) was 2 g ai/ha, the “Visual Growth Reduction (%) 21 Days After Application, MATCH” value (MATCH, 17.5 g ai/ha) was “F (30-44)” and the “Visual Growth Reduction (%) 21 Days After Application, MATCH” value (MATCH, 35 g ai/ha) was “E (45-59)”. The “Visual Growth Reduction (%) 21 Days After Application, MATCH” value (MATCH, 70 g ai/ha) was “D (60-74)”, the “GR50, MATCH” value (MATCH, dose for 50 percent growth reduction, probit analysis) was 45 g ai/ha and the “GR80, MATCH” value (MATCH, dose for 80 percent growth reduction, probit analysis) was over 140 g ai/ha. The “GR90, MATCH” value (MATCH, dose for 90 percent growth reduction, probit analysis) was over 140 g ai/ha, the “Visual Growth Reduction (%) 21 Days After Application, PAPRH” value (PAPRH, 17.5 g ai/ha) was “A (95-100)” and the “Visual Growth Reduction (%) 21 Days After Application, PAPRH” value (PAPRH, 35 g ai/ha) was “A (95-100)”. The “Visual Growth Reduction (%) 21 Days After Application, PAPRH” value (PAPRH, 70 g ai/ha) was “A (95-100)”, the “GR50, PAPRH” value (PAPRH, dose for 50 percent growth reduction, probit analysis) was 0.06 g ai/ha and the “GR80, PAPRH” value (PAPRH, dose for 80 percent growth reduction, probit analysis) was 1 g ai/ha. For the same compound, the “GR90, PAPRH” value (PAPRH, dose for 90 percent growth reduction, probit analysis) was 2 g ai/ha, the “Visual Growth Reduction (%) 21 Days After Application, SASKR” value (SASKR, 17.5 g ai/ha) was “C (75-84)” and the “Visual Growth Reduction (%) 21 Days After Application, SASKR” value (SASKR, 35 g ai/ha) was “C (75-84)”. For the same compound, the “Visual Growth Reduction (%) 21 Days After Application, SASKR” value (SASKR, 70 g ai/ha) was “B (85-94)”, the “GR50, SASKR” value (SASKR, dose for 50 percent growth reduction, probit analysis) was 7 g ai/ha and the “GR80, SASKR” value (SASKR, dose for 80 percent growth reduction, probit analysis) was 30 g ai/ha. For the same compound, the “GR90, SASKR” value (SASKR, dose for 90 percent growth reduction, probit analysis) was 95 g ai/ha, the “Visual Growth Reduction (%) 21 Days After Application, SINAR” value (SINAR, 17.5 g ai/ha) was “A (95-100)” and the “Visual Growth Reduction (%) 21 Days After Application, SINAR” value (SINAR, 35 g ai/ha) was “A (95-100)”. The “Visual Growth Reduction (%) 21 Days After Application, SINAR” value (SINAR, 70 g ai/ha) was “A (95-100)”, the “GR50, SINAR” value (SINAR, dose for 50 percent growth reduction, probit analysis) was 4 g ai/ha and the “GR80, SINAR” value (SINAR, dose for 80 percent growth reduction, probit analysis) was 8 g ai/ha. For the same compound, the “GR90, SINAR” value (SINAR, dose for 90 percent growth reduction, probit analysis) was 12 g ai/ha, the “Visual Growth Reduction (%) 21 Days After Application, TRZAS” value (TRZAS, 17.5 g ai/ha) was “F (30-44)” and the “Visual Growth Reduction (%) 21 Days After Application, TRZAS” value (TRZAS, 35 g ai/ha) was “E (45-59)”. The “Visual Growth Reduction (%) 21 Days After Application, TRZAS” value (TRZAS, 70 g ai/ha) was “D (60-74)”, the “GR20, TRZAS” value (TRZAS, dose for 20 percent growth reduction, probit analysis) was 13 g ai/ha and the “Visual Growth Reduction (%) 21 Days After Application, VERPE” value (VERPE, 17.5 g ai/ha) was “A (95-100)”. For the same compound, the “Visual Growth Reduction (%) 21 Days After Application, VERPE” value (VERPE, 35 g ai/ha) was “A (95-100)”, the “Visual Growth Reduction (%) 21 Days After Application, VERPE” value (VERPE, 70 g ai/ha) was “A (95-100)” and the “GR50, VERPE” value (VERPE, dose for 50 percent growth reduction, probit analysis) was 0.28 g ai/ha. The “GR80, VERPE” value (VERPE, dose for 80 percent growth reduction, probit analysis) was 2 g ai/ha, the “GR90, VERPE” value (VERPE, dose for 90 percent growth reduction, probit analysis) was 6 g ai/ha and the “Visual Growth Reduction (%) 21 Days After Application, VIOTR” value (VIOTR, 17.5 g ai/ha) was “E (45-59)”. For the same compound, the “Visual Growth Reduction (%) 21 Days After Application, VIOTR” value (VIOTR, 35 g ai/ha) was “D (60-74)”, the “Visual Growth Reduction (%) 21 Days After Application, VIOTR” value (VIOTR, 70 g ai/ha) was “C (75-84)” and the “GR50, VIOTR” value (VIOTR, dose for 50 percent growth reduction, probit analysis) was 22 g ai/ha. For the same compound, the “GR80, VIOTR” value (VIOTR, dose for 80 percent growth reduction, probit analysis) was 63 g ai/ha and the “GR90, VIOTR” value (VIOTR, dose for 90 percent growth reduction, probit analysis) was 111 g ai/ha.
